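Following 48 hours of exposure in 96-well plates, responses at five concentrations were used to interpolate endpoints linearly. TGI: total growth inhibition.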

Some test systems named below: SF-268 CNS; UACC-62 melanoma; SK-OV-3 ovarian; MDA-N; UACC-257 melanoma; RXF 393 renal; NCI-H23 lung; HL-60(TB) leukemia; NCI-H460 lung.
Common to all, as to assay: NCI-60 cell line screen, 48 h

For `CC1(c2ccc(Cl)cc2)c2ccccc2C(=O)N1CCCN1C(=O)c2ccccc2C1=O` (stereo not drawn), the TGI was over 100 µM in the assay with SF-268 CNS; over 100 µM in the assay with UACC-62 melanoma; over 100 µM with SK-OV-3 ovarian; over 100 µM in the assay on MDA-N; over 100 µM in the assay on UACC-257 melanoma; 94.5 µM in the assay with RXF 393 renal. Moreover, the TGI with NCI-H23 lung was 97.9 µM; in the assay on HL-60(TB) leukemia it was over 100 µM.

As to `CC(C)(C)OC(=O)N1CCC2(CC1)C(=O)NCN2c1ccccc1`, the TGI in the assay on SF-268 CNS, in the assay on UACC-62 melanoma, in the assay with SK-OV-3 ovarian, in the assay on MDA-N, with UACC-257 melanoma and in the assay with NCI-H460 lung was over 100 µM throughout. In addition, the TGI with RXF 393 renal, in the assay on NCI-H23 lung and in the assay with HL-60(TB) leukemia was over 100 µM throughout.

For the compound `CC1=NN(c2cc(Cl)c(S(=O)(=O)O)cc2Cl)C2(C1)C(Cl)C(=O)N2c1nc2ccccc2s1` (stereo not drawn), the TGI in the assay on SF-268 CNS, with UACC-62 melanoma, in the assay on MDA-N, with UACC-257 melanoma, in the assay with NCI-H460 lung and in the assay with RXF 393 renal was over 100 µM in each case. In addition, the TGI in the assay on NCI-H23 lung and with HL-60(TB) leukemia was over 100 µM each time.

Turning to `CC(=O)N1CN2C(=O)CCC2c2cc(C)ccc21` (stereo not drawn), the TGI in the assay on SF-268 CNS, in the assay on UACC-62 melanoma, in the assay with SK-OV-3 ovarian, in the assay with MDA-N, in the assay with UACC-257 melanoma and with NCI-H460 lung was over 100 µM throughout. For the same compound, the TGI in the assay with RXF 393 renal, with NCI-H23 lung and in the assay with HL-60(TB) leukemia was over 100 µM throughout.

Regarding `COC(=O)[C@]1(c2cc3ccccc3[nH]2)CC2CNC1C1OC(C)(C)OC21` (stereo partly drawn), the TGI in the assay on SF-268 CNS, in the assay on UACC-62 melanoma, with SK-OV-3 ovarian, with MDA-N, in the assay on UACC-257 melanoma and in the assay on NCI-H460 lung was over 100 µM throughout. The TGI with RXF 393 renal, in the assay on NCI-H23 lung and in the assay on HL-60(TB) leukemia was over 100 µM each time.

With `COc1ccc(Nc2nc(N)c(C(=O)c3ccco3)s2)cc1`, the TGI was over 100 µM in the assay on SF-268 CNS; over 100 µM with UACC-62 melanoma; over 100 µM in the assay with SK-OV-3 ovarian; over 100 µM in the assay with MDA-N; over 100 µM in the assay on UACC-257 melanoma; over 53.3 µM with NCI-H460 lung. The TGI in the assay on RXF 393 renal is over 77.6 µM; with NCI-H23 lung it was over 100 µM; in the assay with HL-60(TB) leukemia, 17.7 µM.

With `Clc1ccc(C2=CC(c3ccccc3)N3C(=N[C@H]4CCCC[C@@H]43)N2)cc1` (stereo partly drawn), the TGI in the assay with SF-268 CNS stood at 25.2 µM; with UACC-62 melanoma it was 18.6 µM; in the assay with SK-OV-3 ovarian, 27.9 µM; in the assay with MDA-N, 18.9 µM; in the assay on UACC-257 melanoma, 25.7 µM; with NCI-H460 lung it was 8.72 µM. The values for the TGI in the assay on RXF 393 renal, with NCI-H23 lung and with HL-60(TB) leukemia were 8.44 µM, 20.6 µM and 7.79 µM, respectively.

As to `C[N+](C)([O-])C12CC3CC(CC(C3)C1)C2`, the TGI was over 100 µM in the assay on SF-268 CNS; 47.4 µM in the assay on UACC-62 melanoma; over 100 µM in the assay with SK-OV-3 ovarian; over 100 µM in the assay on MDA-N; over 100 µM with UACC-257 melanoma; over 100 µM in the assay with NCI-H460 lung. Also, the TGI in the assay with RXF 393 renal, in the assay on NCI-H23 lung and in the assay on HL-60(TB) leukemia was over 100 µM throughout.

For `O=[N+]([O-])C(/C=C(\Cl)[N+](=O)[O-])=C(Nc1ccccc1)Nc1ccccc1`, the TGI in the assay with SF-268 CNS amounted to 37.7 µM; in the assay with UACC-62 melanoma, 21.3 µM; in the assay on SK-OV-3 ovarian, 34.5 µM; with MDA-N, 18.7 µM; with UACC-257 melanoma, 27.1 µM; in the assay on NCI-H460 lung, 30 µM. The TGI worked out at 10.5 µM in the assay with RXF 393 renal, 23.2 µM with NCI-H23 lung and 14.9 µM in the assay on HL-60(TB) leukemia.

In the case of `CC(CSc1nc2c(c(=N)n1-c1ccccc1)c(=S)n(-c1ccccc1)c(=S)n2-c1ccccc1)CN(C)C` (stereo not drawn), the TGI is 3.24 µM in the assay with SF-268 CNS; 3.15 µM in the assay with UACC-62 melanoma; 11.6 µM in the assay on SK-OV-3 ovarian; 3.76 µM in the assay on MDA-N; 3.43 µM in the assay on UACC-257 melanoma; 4.14 µM with NCI-H460 lung. Also, the TGI in the assay with RXF 393 renal came to 3.32 µM; in the assay with NCI-H23 lung, 4.89 µM; in the assay on HL-60(TB) leukemia it was 2.37 µM.

Consider `CCOC(=O)CCC(C(=O)OCC)n1nnc2cc(Nc3c(C)[n+]([O-])c4cc(Cl)ccc4[n+]3[O-])ccc21` (stereo not drawn), for which the TGI with SF-268 CNS, with UACC-62 melanoma, in the assay on SK-OV-3 ovarian, in the assay on MDA-N, with UACC-257 melanoma and with NCI-H460 lung was over 100 µM in each case. For the same compound, the TGI in the assay on RXF 393 renal, in the assay with NCI-H23 lung and with HL-60(TB) leukemia was over 100 µM each time.

As for `CCOC(=O)/C=C(/OCC)[C@@H]1C(C(=O)c2ccc(Cl)cc2)[C@@H]1/C(=C\C(=O)OCC)OCC` (stereo partly drawn), the TGI in the assay on SF-268 CNS, with UACC-62 melanoma, with SK-OV-3 ovarian, with MDA-N, in the assay on UACC-257 melanoma and with NCI-H460 lung was over 100 µM in each case. Moreover, the TGI is over 78.5 µM in the assay with RXF 393 renal, 81.8 µM with NCI-H23 lung and 37.5 µM with HL-60(TB) leukemia.

As for `C=C(C)C1CCC2(C)C1CCC1(C)C2CCC2C3(C)C4OC(OC4=O)C(C)(C)C3CCC21C` (stereo not drawn), the TGI with SF-268 CNS, in the assay with UACC-62 melanoma, in the assay with SK-OV-3 ovarian, in the assay on MDA-N, in the assay with UACC-257 melanoma and with NCI-H460 lung was over 100 µM in each case. The TGI in the assay with RXF 393 renal was over 100 µM; in the assay with NCI-H23 lung it was over 100 µM; with HL-60(TB) leukemia, 80.1 µM.

Consider `COc1cc2c(cc1OC)C(C1CC1)ON(C)CC2` (stereo not drawn), for which the TGI in the assay on SF-268 CNS, with UACC-62 melanoma, in the assay on MDA-N, with UACC-257 melanoma, in the assay on NCI-H460 lung and with RXF 393 renal was over 100 µM in each case. Moreover, the TGI in the assay with NCI-H23 lung and in the assay with HL-60(TB) leukemia was over 100 µM throughout.

The values are drawn from PubChem BioAssay (NCI).
